What all share (assay type): biochemical
Experiment [1] has as its target IP6K1 (Homo sapiens (Human), UniProt Q92551). The experiment is described as follows: Enzyme-coupled assay of IP6K1 activity (Dipp1-coupled, malachite green Pi release). Here is the method:
(§1) […] The cells were disrupted using a constant cell disruption system (Constant Systems) under 20 kPsi.
(§2) Pi release was determined with a malachite green colorimetric assay.^45 Where indicated, TNP (Cayman Chemical) was added to the assays (FIG. 2A-E).

Experiment [2] deals with IP6K2 (Homo sapiens (Human), UniProt Q9UHH9). The experiment is described as follows: Enzyme-coupled assay of IP6K2 activity (Dipp1-coupled, malachite green Pi release). As for the experimental part:
as §1, §2

Experiment [3] has as its target IPMK (Homo sapiens (Human), UniProt Q8NFU5). Description: Enzyme-coupled assay, IPMK IC50.
The mark [4] stands for this setting: determined from enzyme-coupled assays.

Structures are written as SMILES.

As usually defined, the IC50 is the point on the concentration scale where inhibition reaches its midpoint. The low end stands for greater potency, the high end for weaker potency.

Chain of IPMK (Q8NFU5 whole entry, species assumed): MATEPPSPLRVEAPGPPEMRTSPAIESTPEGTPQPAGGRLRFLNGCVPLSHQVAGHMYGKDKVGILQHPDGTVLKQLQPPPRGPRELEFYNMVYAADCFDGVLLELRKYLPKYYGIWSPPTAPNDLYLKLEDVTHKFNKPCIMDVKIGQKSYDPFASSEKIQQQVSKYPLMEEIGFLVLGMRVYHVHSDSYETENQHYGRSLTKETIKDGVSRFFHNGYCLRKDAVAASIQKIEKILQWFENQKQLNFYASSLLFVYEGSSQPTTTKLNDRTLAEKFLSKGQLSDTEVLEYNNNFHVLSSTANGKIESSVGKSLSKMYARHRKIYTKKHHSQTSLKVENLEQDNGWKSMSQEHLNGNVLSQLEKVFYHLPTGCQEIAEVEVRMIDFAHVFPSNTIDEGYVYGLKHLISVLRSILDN
Chain of IP6K2 (Q9UHH9 whole entry): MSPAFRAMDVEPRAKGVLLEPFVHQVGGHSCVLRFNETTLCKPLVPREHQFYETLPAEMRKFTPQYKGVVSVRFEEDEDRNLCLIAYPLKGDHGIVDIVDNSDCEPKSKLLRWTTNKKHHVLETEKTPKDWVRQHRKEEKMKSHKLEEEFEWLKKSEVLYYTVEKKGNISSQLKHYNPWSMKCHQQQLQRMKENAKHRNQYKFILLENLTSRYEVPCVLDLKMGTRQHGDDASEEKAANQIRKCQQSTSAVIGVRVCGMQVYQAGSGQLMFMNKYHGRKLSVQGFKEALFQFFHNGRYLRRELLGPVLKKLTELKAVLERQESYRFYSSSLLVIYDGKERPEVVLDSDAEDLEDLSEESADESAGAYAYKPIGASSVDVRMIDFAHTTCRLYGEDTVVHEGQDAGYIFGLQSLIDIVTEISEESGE
Chain of IP6K1 (Q92551 whole entry): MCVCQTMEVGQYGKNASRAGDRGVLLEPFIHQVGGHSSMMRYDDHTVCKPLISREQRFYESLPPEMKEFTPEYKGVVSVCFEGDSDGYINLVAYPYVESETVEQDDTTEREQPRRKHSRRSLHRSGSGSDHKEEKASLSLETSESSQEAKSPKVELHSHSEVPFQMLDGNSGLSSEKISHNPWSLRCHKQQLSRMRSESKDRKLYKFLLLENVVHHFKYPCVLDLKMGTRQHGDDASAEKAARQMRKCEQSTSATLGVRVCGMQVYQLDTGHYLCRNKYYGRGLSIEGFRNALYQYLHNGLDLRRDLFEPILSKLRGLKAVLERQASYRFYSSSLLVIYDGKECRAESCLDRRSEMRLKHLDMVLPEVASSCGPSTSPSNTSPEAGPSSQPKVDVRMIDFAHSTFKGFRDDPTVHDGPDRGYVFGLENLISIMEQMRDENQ

As for `CC1(COc2cccc(-c3onc4ccc(-c5nnn[nH]5)cc34)c2)COC1` [Cmpd 91], the IC50 in experiment [1] (enzyme-coupled assay, Table 4) fell in the range of 10 to 100 nM; in experiment [2] (enzyme-coupled assay, Table 4), 10 to 100 nM.
Regarding `O=c1[nH]c(-c2ccc3noc(-c4cccc(Oc5ncc(Cl)cc5Cl)c4)c3c2)no1` [Cmpd 127], the IC50 in experiment [1] (setting [4]), in experiment [2] (setting [4]) and in experiment [3] (setting [4]) was 10 to 100 nM in each case.
With `CC(C)(C)OC(=O)N1CCC(Oc2cccc(-c3onc4ccc(-c5noc(=O)[nH]5)cc34)c2)CC1` [Cmpd 128], the half-maximal inhibitory concentration (IC50) in experiment [1] (setting [4]), in experiment [2] (setting [4]) and in experiment [3] (setting [4]) was 10 to 100 nM in each case.
As for `O=c1[nH]c(-c2ccc3noc(-c4cccc(OC5CCNCC5)c4)c3c2)no1` [Cmpd 129], the IC50 was 10 to 100 nM in experiment [1] (setting [4]), 10 to 100 nM in experiment [2] (setting [4]) and under 10 nM in experiment [3] (setting [4]).
Regarding `O=C(Nc1ccc(-c2onc3ccc(-c4noc(=O)[nH]4)cc23)cc1)C1CCCC1` [Cmpd 130], the half-maximal inhibitory concentration (IC50) in experiment [1] (setting [4]) was under 10 nM; in experiment [2] (setting [4]) it was under 10 nM; in experiment [3] (setting [4]), 10 to 100 nM.
Take `CN1CCC(Oc2cccc(-c3onc4ccc(-c5noc(=O)[nH]5)cc34)c2)CC1` [Cmpd 131]: the IC50 in experiment [1] (setting [4]), in experiment [2] (setting [4]) and in experiment [3] (setting [4]) was 100 to 1000 nM throughout.
For `O=c1[nH]c(-c2ccc3noc(-c4cccc(OC5CCN(CC6CC6)CC5)c4)c3c2)no1` [Cmpd 132], the results for the half-inhibitory concentration (IC50) in experiment [1] (setting [4]), in experiment [2] (setting [4]) and in experiment [3] (setting [4]) were 100 to 1000 nM, 100 to 1000 nM and 10 to 100 nM, respectively.
Regarding `O=c1[nH]c(-c2ccc3noc(-c4cccc(OC5CCN(C6CCC6)CC5)c4)c3c2)no1` [Cmpd 133], the half-inhibitory concentration (IC50) in experiment [1] (setting [4]) was in the range of 100 to 1000 nM; in experiment [2] (setting [4]), 100 to 1000 nM; in experiment [3] (setting [4]), 10 to 100 nM.
`O=c1[nH]c(-c2ccc3noc(-c4cccc(OC5CCN(C6COC6)CC5)c4)c3c2)no1` [Cmpd 134]: the half-inhibitory concentration (IC50) in experiment [1] (setting [4]), in experiment [2] (setting [4]) and in experiment [3] (setting [4]) was 100 to 1000 nM throughout.
Regarding `O=c1[nH]c(-c2ccc3noc(-c4cccc(OC5CCN(CCO)CC5)c4)c3c2)no1` [Cmpd 135], the values for the IC50 in experiment [1] (setting [4]), in experiment [2] (setting [4]) and in experiment [3] (setting [4]) were 100 to 1000 nM, 100 to 1000 nM and 10 to 100 nM, respectively.
As to `O=C(Nc1ccc(-c2onc3ccc(-c4noc(=O)[nH]4)cc23)cc1)[C@@H]1CCCN1` [Cmpd 136], the concentration for half-maximal inhibition (IC50) fell in the range of 100 to 1000 nM in experiment [1] (setting [4]), 100 to 1000 nM in experiment [2] (setting [4]) and 10 to 100 nM in experiment [3] (setting [4]).
For `O=C(Nc1ccc(-c2onc3ccc(-c4noc(=O)[nH]4)cc23)cc1)C1CNC1` [Cmpd 137], the half-inhibitory concentration (IC50) in experiment [1] (setting [4]) was in the range of 100 to 1000 nM; in experiment [2] (setting [4]), 1000 to 100000 nM; in experiment [3] (setting [4]) it was 100 to 1000 nM.
Consider `O=C(C1CC1)N1CCC(Oc2cccc(-c3onc4ccc(-c5noc(=O)[nH]5)cc34)c2)CC1` [Cmpd 138], for which the IC50 in experiment [1] (setting [4]) lay in the range of 100 to 1000 nM; in experiment [2] (setting [4]), 10 to 100 nM; in experiment [3] (setting [4]) it was 10 to 100 nM.
As to `CC1(C(=O)N2CCC(Oc3cccc(-c4onc5ccc(-c6noc(=O)[nH]6)cc45)c3)CC2)COC1` [Cmpd 139], the IC50 lay in the range of 100 to 1000 nM in experiment [1] (setting [4]), 10 to 100 nM in experiment [2] (setting [4]) and 100 to 1000 nM in experiment [3] (setting [4]).
Turning to `CCOC(=O)/C=C/c1ccc2noc(-c3ccccc3)c2c1` [Compound 7], the half-maximal inhibitory concentration (IC50) is 1000 to 100000 nM in experiment [1] (enzyme-coupled assay, Table 1) and 1000 to 100000 nM in experiment [2] (enzyme-coupled assay, Table 1).
For `COc1ccc(-c2onc3ccc(/C=C/C(=O)O)cc23)cc1` [Compound 13], the half-maximal inhibitory concentration (IC50) in experiment [1] (enzyme-coupled assay, Table 1) was in the range of 100 to 1000 nM; in experiment [2] (enzyme-coupled assay, Table 1) it was 1000 to 100000 nM.
Regarding `CNC(=O)c1ccc2noc(-c3ccccc3)c2c1` [Compound 21], the “IPMK IC50” value in experiment [3] (enzyme-coupled assay, Table 2) is “−”.
In the case of `O=C(O)c1ccc2noc(-c3ccc(OC(F)(F)F)cc3)c2c1` [Compound 23], the IC50 in experiment [1] (enzyme-coupled assay, Table 2) was 1000 to 100000 nM; in experiment [2] (enzyme-coupled assay, Table 2) it was 100 to 1000 nM.
As to `CNC(=O)c1ccc2noc(-c3cccc(Oc4ncc(Cl)cc4Cl)c3)c2c1` [Compound 31], the IC50 in experiment [1] (enzyme-coupled assay, Table 2) was in the range of 100 to 1000 nM; in experiment [2] (enzyme-coupled assay, Table 2), 100 to 1000 nM; in experiment [3] (enzyme-coupled assay, Table 2), 1000 to 100000 nM.
For `CN1CCC(NC(=O)c2ccc(-c3onc4ccc(C(=O)O)cc34)cc2)CC1` [Compound 40], the IC50 was in the range of 1000 to 100000 nM in experiment [1] (enzyme-coupled assay, Table 2) and 1000 to 100000 nM in experiment [2] (enzyme-coupled assay, Table 2). In experiment [3] (enzyme-coupled assay, Table 2), the “IPMK IC50” value is on record as “−”.
Take `O=C(O)c1ccc2noc(-c3ccc(C(=O)NCCN4CCOCC4)cc3)c2c1` [Compound 41]: the “IP6K1 IC50” value in experiment [1] (enzyme-coupled assay, Table 2) is listed as “−”. Also, the “IP6K2 IC50” value in experiment [2] (enzyme-coupled assay, Table 2) was “−”. In experiment [3] (enzyme-coupled assay, Table 2), the “IPMK IC50” value is listed as “−”.
For the compound `O=C(O)c1ccc2noc(-c3ccc(NC(=O)C4CCNCC4)cc3)c2c1` [Compound 48], the IC50 in experiment [1] (enzyme-coupled assay, Table 2) lay in the range of 1000 to 100000 nM; in experiment [2] (enzyme-coupled assay, Table 2), 1000 to 100000 nM. For the same compound, the “IPMK IC50” value in experiment [3] (enzyme-coupled assay, Table 2) was “−”.
In the case of `O=C(O)c1ccc2noc(-c3cccc(NC(=O)C4CCCC4)c3)c2c1` [Compound 49], the IC50 in experiment [1] (enzyme-coupled assay, Table 2) lay in the range of 100 to 1000 nM; in experiment [2] (enzyme-coupled assay, Table 2) it was 100 to 1000 nM; in experiment [3] (enzyme-coupled assay, Table 2), 10 to 100 nM.
Regarding `CC(C)C(=O)Nc1cccc(-c2onc3ccc(C(=O)O)cc23)c1` [Compound 50], the half-maximal inhibitory concentration (IC50) in experiment [1] (enzyme-coupled assay, Table 2) was in the range of 1000 to 100000 nM; in experiment [2] (enzyme-coupled assay, Table 2), 100 to 1000 nM; in experiment [3] (enzyme-coupled assay, Table 2) it was 100 to 1000 nM.
As to `O=C(O)c1ccc2noc(-c3cccc(-c4cncc(O)c4)c3)c2c1` [Compound 53], the 50% inhibitory concentration (IC50) in experiment [1] (enzyme-coupled assay, Table 2) is 100 to 1000 nM; in experiment [2] (enzyme-coupled assay, Table 2) it was 100 to 1000 nM.
The compound `O=C(O)c1ccc2noc(-c3ccc(-c4cccnc4)cc3)c2c1` [Compound 57] displayed a 50% inhibitory concentration (IC50) in experiment [3] (enzyme-coupled assay, Table 3) of 10 to 100 nM.
Turning to `c1cc(OC2CCN(C3CCC3)CC2)cc(-c2onc3ccc(-c4nnn[nH]4)cc23)c1` [Compound 62], the IC50 in experiment [2] (enzyme-coupled assay, Table 4) was 100 to 1000 nM; in experiment [3] (enzyme-coupled assay, Table 4), 10 to 100 nM.
For `c1cc(OC2CNC2)cc(-c2onc3ccc(-c4nnn[nH]4)cc23)c1` [Compound 92], the IC50 in experiment [1] (enzyme-coupled assay, Table 4) is 10 to 100 nM; in experiment [2] (enzyme-coupled assay, Table 4), 10 to 100 nM.

Source of the values: patent US20250154115A1, “ARYLBENZOISOXAZOLE COMPOUNDS AS IP6K AND IPMK INHIBITORS AND METHODS OF USE THEREOF” (THE UNIVERSITY OF NORTH CAROLINA AT CHAPEL HILL, priority 2022, published 2025).
